{
  "source": "patent US8802597B2",
  "about": "“Herbicidal pyrimidines” (E I du Pont de Nemours and Company, priority 2003, dated 2014)",
  "type_in_all_cases": "in vivo",
  "key": {"[1]": {"system": "wild oat (Avena fatua)", "test": "Test B postemergence", "conditions": "scale 0 to 100 (0 no effect, 100 complete control)", "method_in_brief": "(§1)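 Visual rating, 0 (no effect) to 100 (complete control) versus controls, taken 13–15 days after treatment in greenhouse. Compounds formulated in non-phytotoxic solvent plus surfactant; pre: sprayed after seeding; post: plants at 1- to 4-leaf stage, 2–18 cm.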"}, "[2]": {"system": "blackgrass (Alopecurus myosuroides)", "test": "Test B postemergence", "conditions": "scale 0 to 100 (0 no effect, 100 complete control)", "method_in_brief": "as §1"}, "[3]": {"system": "wheat (Triticum aestivum)", "test": "Test B pre/postemergence", "conditions": "for Wheat plant response rating: Postemergence; for Plant response rating, Wheat: Preemergence", "method_in_brief": "as §1"}, "[4]": {"system": "barnyardgrass (Echinochloa crus-galli)", "test": "Test B pre/postemergence", "conditions": "for Barnyardgrass plant response rating: Postemergence; for Plant response rating, Barnyardgrass: Preemergence", "method_in_brief": "as §1"}, "[5]": {"system": "cocklebur (Xanthium strumarium)", "test": "Test B pre/postemergence", "conditions": "for Cocklebur plant response rating: Postemergence; for Plant response rating, Cocklebur: Preemergence", "method_in_brief": "as §1"}, "[6]": {"system": "pigweed (Amaranthus retroflexus)", "test": "Test B pre/postemergence", "conditions": "for Pigweed plant response rating: Postemergence; for Plant response rating, Pigweed: Preemergence", "method_in_brief": "as §1"}, "[7]": {"system": "velvetleaf (Abutilon theophrasti)", "test": "Test B pre/postemergence", "conditions": "for Velvetleaf plant response rating: Postemergence; for Plant response rating, Velvetleaf: Preemergence", "method_in_brief": "as §1"}, "[8]": {"system": "morningglory (Ipomoea coccinea)", "test": "Test B pre/postemergence", "conditions": "for Morningglory plant response rating: Postemergence; for Plant response rating, Morningglory: Preemergence", "method_in_brief": "as §1"}, "[9]": {"system": "crabgrass (Digitaria sanguinalis)", "test": "Test B pre/postemergence", "conditions": "for Crabgrass plant response rating: Postemergence; for Plant response rating, Crabgrass: Preemergence", "method_in_brief": "as §1"}, "[10]": {"system": "giant foxtail (Setaria faberii)", "test": "Test B pre/postemergence", "conditions": "for Foxtail, Giant plant response rating: Postemergence; for Plant response rating, Foxtail, Giant: Preemergence", "method_in_brief": "as §1"}, "[11]": {"system": "Surinam grass (Brachiaria decumbens)", "test": "Test B pre/postemergence", "conditions": "for Surinam Grass plant response rating: Postemergence; for Plant response rating, Surinam Grass: Preemergence", "method_in_brief": "as §1"}, "[12]": {"system": "corn (Zea mays)", "test": "Test B pre/postemergence", "conditions": "for Corn plant response rating: Postemergence; for Plant response rating, Corn: Preemergence", "method_in_brief": "as §1"}, "[13]": {"system": "lambsquarters (Chenopodium album)", "test": "Test B pre/postemergence", "conditions": "for Lambsquarters plant response rating: Postemergence; for Plant response rating, Lambsquarters: Preemergence", "method_in_brief": "as §1"}, "[14]": {"system": "duck salad (Heteranthera limosa)", "test": "Test B flooded paddy test", "conditions": "Flood, scale 0 to 100", "method_in_brief": "(§2)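 Rice, umbrella sedge, duck salad and barnyardgrass grown to 2-leaf stage under flooded paddy conditions and treated with formulated test chemicals. Kept in greenhouse 13–15 days, then visually rated against untreated controls on a 0–100 scale (0 no effect, 100 complete control).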"}, "[15]": {"system": "rice (Oryza sativa)", "test": "Test B flooded paddy test", "conditions": "Flood, scale 0 to 100", "method_in_brief": "as §2"}, "[16]": {"system": "barnyardgrass (Echinochloa crus-galli)", "test": "Test B flooded paddy test", "conditions": "Flood, scale 0 to 100", "method_in_brief": "as §2"}, "[17]": {"system": "umbrella sedge (Cyperus difformis)", "test": "Test B flooded paddy test", "conditions": "Flood, scale 0 to 100", "method_in_brief": "as §2"}, "[18]": {"conditions": "62 g ai/ha, scale 0 to 100 (0 no effect, 100 complete control)"}, "[19]": {"conditions": "125 g ai/ha, scale 0 to 100 (0 no effect, 100 complete control)"}, "[20]": {"conditions": "62 g ai/ha, scale 0 to 100, 0 no effect, 100 complete control"}},
  "data": [
    {"smiles": "Nc1nc(-c2ccc(Cl)cc2)nc(C(=O)[O-])c1Cl.[Na+]", "note": "[Compound 117]", "values": [
      {"measurement": "Oat, Wild plant response rating", "setting": "[1]; 62 g ai/ha", "value": 30},
      {"measurement": "Oat, Wild plant response rating", "setting": "[1]; 125 g ai/ha", "value": 50},
      {"measurement": "Blackgrass plant response rating", "setting": "[2]; 62 g ai/ha", "value": 60},
      {"measurement": "Blackgrass plant response rating", "setting": "[2]; 125 g ai/ha", "value": 70},
      {"measurement": "Wheat plant response rating", "setting": "[3]; [18]", "value": 50},
      {"measurement": "Wheat plant response rating", "setting": "[3]; [19]", "value": 70},
      {"measurement": "Plant response rating, Wheat", "setting": "[3]; [20]", "value": 50},
      {"measurement": "Plant response rating, Wheat", "setting": "[3]; [19]", "value": 80},
      {"measurement": "Barnyardgrass plant response rating", "setting": "[4]; [18]", "value": 90},
      {"measurement": "Barnyardgrass plant response rating", "setting": "[4]; [19]", "value": 90},
      {"measurement": "Plant response rating, Barnyardgrass", "setting": "[4]; [20]", "value": 10},
      {"measurement": "Plant response rating, Barnyardgrass", "setting": "[4]; [19]", "value": 30},
      {"measurement": "Cocklebur plant response rating", "setting": "[5]; [18]", "value": 100},
      {"measurement": "Cocklebur plant response rating", "setting": "[5]; [19]", "value": 100},
      {"measurement": "Plant response rating, Cocklebur", "setting": "[5]; [20]", "value": 50},
      {"measurement": "Plant response rating, Cocklebur", "setting": "[5]; [19]", "value": 90},
      {"measurement": "Pigweed plant response rating", "setting": "[6]; [18]", "value": 100},
      {"measurement": "Pigweed plant response rating", "setting": "[6]; [19]", "value": 100},
      {"measurement": "Plant response rating, Pigweed", "setting": "[6]; [20]", "value": 100},
      {"measurement": "Plant response rating, Pigweed", "setting": "[6]; [19]", "value": 100},
      {"measurement": "Velvetleaf plant response rating", "setting": "[7]; [18]", "value": 90},
      {"measurement": "Velvetleaf plant response rating", "setting": "[7]; [19]", "value": 100},
      {"measurement": "Plant response rating, Velvetleaf", "setting": "[7]; [20]", "value": 70},
      {"measurement": "Plant response rating, Velvetleaf", "setting": "[7]; [19]", "value": 90},
      {"measurement": "Morningglory plant response rating", "setting": "[8]; [18]", "value": 80},
      {"measurement": "Morningglory plant response rating", "setting": "[8]; [19]", "value": 100},
      {"measurement": "Plant response rating, Morningglory", "setting": "[8]; [20]", "value": 10},
      {"measurement": "Plant response rating, Morningglory", "setting": "[8]; [19]", "value": 20},
      {"measurement": "Crabgrass plant response rating", "setting": "[9]; [18]", "value": 60},
      {"measurement": "Crabgrass plant response rating", "setting": "[9]; [19]", "value": 80},
      {"measurement": "Plant response rating, Crabgrass", "setting": "[9]; [20]", "value": 90},
      {"measurement": "Plant response rating, Crabgrass", "setting": "[9]; [19]", "value": 90},
      {"measurement": "Foxtail, Giant plant response rating", "setting": "[10]; [18]", "value": 80},
      {"measurement": "Foxtail, Giant plant response rating", "setting": "[10]; [19]", "value": 80},
      {"measurement": "Plant response rating, Foxtail, Giant", "setting": "[10]; [20]", "value": 20},
      {"measurement": "Plant response rating, Foxtail, Giant", "setting": "[10]; [19]", "value": 90},
      {"measurement": "Surinam Grass plant response rating", "setting": "[11]; [18]", "value": 70},
      {"measurement": "Surinam Grass plant response rating", "setting": "[11]; [19]", "value": 70},
      {"measurement": "Plant response rating, Surinam Grass", "setting": "[11]; [20]", "value": 80},
      {"measurement": "Plant response rating, Surinam Grass", "setting": "[11]; [19]", "value": 100},
      {"measurement": "Corn plant response rating", "setting": "[12]; [18]", "value": 90},
      {"measurement": "Corn plant response rating", "setting": "[12]; [19]", "value": 90},
      {"measurement": "Plant response rating, Corn", "setting": "[12]; [20]", "value": 0},
      {"measurement": "Plant response rating, Corn", "setting": "[12]; [19]", "value": 10},
      {"measurement": "Lambsquarters plant response rating", "setting": "[13]; [18]", "value": 90},
      {"measurement": "Lambsquarters plant response rating", "setting": "[13]; [19]", "value": 100},
      {"measurement": "Plant response rating, Lambsquarters", "setting": "[13]; [20]", "value": 90},
      {"measurement": "Plant response rating, Lambsquarters", "setting": "[13]; [19]", "value": 100},
      {"measurement": "Plant response rating, Ducksalad", "setting": "[14]; 125 g ai/ha", "value": 100},
      {"measurement": "Plant response rating, Ducksalad", "setting": "[14]; 500 g ai/ha", "value": 100},
      {"measurement": "Plant response rating, Rice", "setting": "[15]; 125 g ai/ha", "value": 20},
      {"measurement": "Plant response rating, Rice", "setting": "[15]; 500 g ai/ha", "value": 50},
      {"measurement": "Plant response rating, Barnyardgrass", "setting": "[16]; 125 g ai/ha", "value": 20},
      {"measurement": "Plant response rating, Barnyardgrass", "setting": "[16]; 500 g ai/ha", "value": 70},
      {"measurement": "Plant response rating, Sedge, Umbrella", "setting": "[17]; 125 g ai/ha", "value": 80},
      {"measurement": "Plant response rating, Sedge, Umbrella", "setting": "[17]; 500 g ai/ha", "value": 90}
    ]}
  ]
}
